The values that follow come from the Kinase Knowledgebase extract (Sharma et al. 2016).

The target of this assay is PIK3CA (human) (UniProt P42336). Kind of assay: Inhibition of PIK3CA Kinase Activity.
PIK3CA (human), sequence (P42336 whole entry, looked up): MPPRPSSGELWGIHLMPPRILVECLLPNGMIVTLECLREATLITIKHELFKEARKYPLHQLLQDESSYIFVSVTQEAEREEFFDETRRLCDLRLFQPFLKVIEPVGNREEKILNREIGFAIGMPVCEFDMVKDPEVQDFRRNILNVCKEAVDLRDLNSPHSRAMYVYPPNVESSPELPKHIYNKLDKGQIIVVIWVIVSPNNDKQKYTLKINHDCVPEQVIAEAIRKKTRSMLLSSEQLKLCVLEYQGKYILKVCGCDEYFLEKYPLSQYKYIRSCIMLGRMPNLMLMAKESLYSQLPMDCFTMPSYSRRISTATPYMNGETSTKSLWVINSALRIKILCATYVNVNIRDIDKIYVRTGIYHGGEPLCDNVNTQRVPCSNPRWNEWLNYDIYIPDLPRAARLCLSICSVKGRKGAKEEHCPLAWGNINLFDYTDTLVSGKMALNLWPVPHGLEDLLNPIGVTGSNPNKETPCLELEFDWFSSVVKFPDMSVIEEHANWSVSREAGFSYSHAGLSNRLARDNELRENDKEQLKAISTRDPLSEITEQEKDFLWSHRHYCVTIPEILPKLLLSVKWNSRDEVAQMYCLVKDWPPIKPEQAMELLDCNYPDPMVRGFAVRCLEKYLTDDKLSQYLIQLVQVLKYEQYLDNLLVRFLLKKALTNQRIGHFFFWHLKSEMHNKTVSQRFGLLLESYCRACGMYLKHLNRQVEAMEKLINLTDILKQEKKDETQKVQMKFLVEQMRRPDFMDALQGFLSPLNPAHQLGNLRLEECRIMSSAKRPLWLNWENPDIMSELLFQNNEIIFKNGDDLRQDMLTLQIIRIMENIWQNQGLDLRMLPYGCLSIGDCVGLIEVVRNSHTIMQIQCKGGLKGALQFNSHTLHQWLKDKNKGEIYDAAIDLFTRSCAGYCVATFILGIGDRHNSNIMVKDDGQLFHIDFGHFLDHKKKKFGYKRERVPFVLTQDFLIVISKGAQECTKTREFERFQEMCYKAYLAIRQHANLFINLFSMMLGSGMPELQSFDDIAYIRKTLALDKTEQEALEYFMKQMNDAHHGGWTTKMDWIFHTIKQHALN

For the compound `CC1(C)CCc2ncnc(N3CCOc4ccc(-c5cncc(S(N)(=O)=O)c5)cc4C3)c2C1`, the concentration for half-maximal inhibition (IC50) (as a rule, the concentration that inhibits the measured activity by half) was 50 to 250 nM. `COc1cc2c(N3CCOc4ccc(-c5ccc6nc(C)[nH]c6c5)cc4C3)ncnc2cc1Br` gave a concentration for half-maximal inhibition (IC50) of 250 to 1000 nM. Then `CCCc1c(C)nc(CN(C)C)nc1N1CCOc2ccc(-c3cnc4sc(N)nc4c3)cc2C1`, with not above 10 nM; and `CCNc1nc2ccc(-c3ccc4c(c3)CN(c3ccnc5ccc(OC)cc35)CCO4)cc2[nH]1`, with 10 to 50 nM; and `CCNc1nc2ccc(-c3ccc4c(c3)CN(c3cc(Nc5cccc(OC)c5)ncn3)CCO4)cc2[nH]1`, with 250 to 1000 nM. Compound `CC1=CC(C)(C)Cc2c1ncnc2N1CCOc2ccc(-c3cnc4nc(C)[nH]c4c3)cc2C1` had an IC50 of 10 to 50 nM. In the case of `Cc1nc2ccc(-c3ccc4c(c3)CN(c3ncnc(C)c3CC3CC3)CCO4)cc2[nH]1` it was 50 to 250 nM. For `CN(C)c1nc2ccc(-c3ccc4c(c3)CN(c3ccnc5ccccc35)CCO4)cc2[nH]1`, the half-maximal inhibitory concentration (IC50) is 250 to 1000 nM. For the compound `COC(=O)Nc1nc2ccc(-c3ccc4c(c3)CN(c3nc(CN(C)C)nc5c3CC(C)(C)CC5)CCO4)cc2[nH]1`, the 50% inhibitory concentration (IC50) is not above 10 nM. As for `CC1(C)CCc2ncnc(N3CCOc4ccc(-c5cnc(N)c(S(C)(=O)=O)c5)cc4C3)c2C1`, the IC50 is 10 to 50 nM. Then `Cc1nc2cc(-c3ccc4c(c3)CN(c3nc(CN(C)C)nc(C)c3Br)CCO4)ccc2[nH]1`, with 50 to 250 nM. As for `CN(C)Cc1nc2c(c(N3CCOc4ccc(-c5cnc6nc(C7CC7)[nH]c6c5)cc4C3)n1)CC(C)(C)CC2`, the half-inhibitory concentration (IC50) is not above 10 nM. The compound `Cc1nc2ncc(-c3ccc4c(c3)CN(c3nc(CN5CCOCC5)nc5c3CC(C)(C)CC5)CCO4)cc2[nH]1` gave an IC50 of 10 to 50 nM.

Regarding `COc1ccc2c(N3CCOc4ccc(-c5ccc6nc(N)[nH]c6c5)cc4C3)nc(C)nc2c1`, the IC50 is not above 10 nM.

In the case of `CC1(C)CCc2ncnc(N3CCOc4ccc(-c5cnc(N)c(S(=O)(=O)NC6CNC6)c5)cc4C3)c2C1`, the IC50 was 10 to 50 nM.

In turn, `Cc1nc2ncc(-c3ccc4c(c3)CN(c3nc(-c5ccccn5)nc5c3CC(C)(C)CC5)CCO4)cc2[nH]1` gave an IC50 of 50 to 250 nM. Take `Cc1nc(CN(C)C)nc(N2CCOc3ccc(-c4cnc5sc(N)nc5c4)cc3C2)c1C(C)C`: the half-maximal inhibitory concentration (IC50) is not above 10 nM.

`CC1(C)CCc2ncnc(N3CCOc4ccc(-c5cnc(N)c(S(=O)(=O)N6CCCC(O)C6)c5)cc4C3)c2C1` (configuration not stated) had an IC50 of 10 to 50 nM. Regarding `Cc1cccc(Cl)c1S(=O)(=O)Nc1cc(-c2ccc3c(c2)CN(c2ncnc4c2CC(C)(C)CC4)CCO3)cnc1Cl`, the IC50 was in the range of 50 to 250 nM.

Turning to `CC1(C)CCc2ncnc(N3CCOc4ccc(-c5cnc(N)c(S(=O)(=O)NCCF)c5)cc4C3)c2C1`, the IC50 is not above 10 nM.

Compound `COCCOCc1nc2c(c(N3CCOc4ccc(-c5cnc6nc(C)[nH]c6c5)cc4C3)n1)CC(C)(C)CC2` registered an IC50 of 10 to 50 nM. `Cc1nc2ncc(-c3ccc4c(c3)CN(c3ncnc5c3CC(F)(F)CC5)CCO4)cc2[nH]1`: the half-inhibitory concentration (IC50) is 250 to 1000 nM. `Cc1nc2ncc(-c3ccc4c(c3)CN(c3nc(CNCCF)nc5c3CC(C)(C)CC5)CCO4)cc2[nH]1` gave a concentration for half-maximal inhibition (IC50) of 10 to 50 nM. Turning to `CC1(C)CCc2ncnc(N3CCOc4ccc(-c5cnc6[nH]ncc6c5)cc4C3)c2C1`, the IC50 was in the range of 10 to 50 nM.

The compound `CCN(Cc1nc2c(c(N3CCOc4ccc(-c5cnc6nc(C)[nH]c6c5)cc4C3)n1)CC(C)(C)CC2)C(C)C` registered an IC50 of 10 to 50 nM. Turning to `COc1cccc(Cc2c(C)ncnc2N2CCOc3ccc(-c4ccc5nc(C)[nH]c5c4)cc3C2)c1`, the IC50 lay in the range of 10 to 50 nM. Consider `Cc1ncnc(N2CCOc3ccc(-c4cncs4)cc3C2)c1Cc1ccc(F)cc1`, for which the half-maximal inhibitory concentration (IC50) lay in the range of 250 to 1000 nM.

Compound `COc1ccc2c(N3CCOc4ccc(-c5cnc6sc(NC(C)=O)nc6c5)cc4C3)nc(CN(C)C)nc2c1` registered an IC50 of 10 to 50 nM. In turn, `Cc1nc2ccc(-c3ccc4c(c3)CN(c3ncnc5c(Cl)cc(Cl)cc35)CCO4)cc2[nH]1` came in with a half-maximal inhibitory concentration (IC50) of 250 to 1000 nM. In the case of `Cc1c(NC2CCOCC2)ncnc1N1CCOc2ccc(-c3cnc4nc(C5CC5)[nH]c4c3)cc2C1` it was 50 to 250 nM; in that of `Cc1ncnc(N2CCOc3ccc(-c4ccc(C(=O)NCC(F)F)cc4)cc3C2)c1Cc1ccc(F)cc1`, 50 to 250 nM; in that of `CCNc1nc2ccc(-c3ccc4c(c3)CN(c3nc(CC)nc5cc(OC)ccc35)CCO4)cc2[nH]1`, not above 10 nM. On to `Cc1nc2ncc(-c3ccc4c(c3)CN(c3ncncc3C)CCO4)cc2[nH]1`, for which the IC50 lay within 250 to 1000 nM. `CCN(CC)Cc1nc2c(c(N3CCOc4ccc(-c5cnc6nc(C)[nH]c6c5)cc4C3)n1)CC(C)(C)CC2` showed an IC50 of 10 to 50 nM.

For the compound `COc1ccc2c(N3CCOc4ccc(-c5cnc(N)c([S+]([O-])C[C@@H](C)CO)c5)cc4C3)ncnc2c1` (some centres not stated), the 50% inhibitory concentration (IC50) is 10 to 50 nM.

With `Cc1nc2ccc(-c3ccc4c(c3)CN(c3ncnc5c(Cl)cccc35)CCO4)cc2[nH]1`, the concentration for half-maximal inhibition (IC50) lay in the range of 10 to 50 nM. As to `COc1cc2nccc(N3CCOc4ccc(-c5ccc(-c6ncc[nH]6)cc5)cc4C3)c2cc1OC`, the IC50 lay within 50 to 250 nM. `Cc1nc(N2CCOc3ccc(-c4ccc5nc(C)[nH]c5c4)cc3C2)c2ccccc2n1` came in with a 50% inhibitory concentration (IC50) of 10 to 50 nM.

Compound `COc1ccc(-c2ccc3c(c2)CN(c2nc(CN(C)C)nc4c2CC(C)(C)CC4)CCO3)cc1OC` displayed a half-maximal inhibitory concentration (IC50) of 10 to 50 nM.

`CC1(C)CCc2ncnc(N3CCOc4ccc(-c5cnc6[nH]c(C7CC7)nc6c5)cc4C3)c2C1` had a half-inhibitory concentration (IC50) of 10 to 50 nM. In turn, `COc1ccccc1Cc1c(C)ncnc1N1CCOc2ccc(-c3ccc4nc(C)[nH]c4c3)cc2C1` came in with an IC50 of 50 to 250 nM. Take `Cc1nc2ccc(-c3ccc4c(c3)CN(c3ccnc(C)c3Cc3ccccc3)CCO4)cc2[nH]1`: the half-inhibitory concentration (IC50) lay in the range of 10 to 50 nM. With `CC1(C)CCc2ncnc(N3CCOc4ccc(-c5cnc(N)c(S(=O)(=O)NC[C@H]6CCCN6)c5)cc4C3)c2C1`, the 50% inhibitory concentration (IC50) lay within 50 to 250 nM.

Compound `Cc1nc2ccc(-c3ccc4c(c3)CN(c3ncnc5ccccc35)CCO4)cc2[nH]1` returned an IC50 of 10 to 50 nM. In the case of `COc1ccc2c(N3CCOc4ccc(-c5cnc(NC(C)=O)s5)cc4C3)nc(C)nc2c1`, the half-inhibitory concentration (IC50) was 10 to 50 nM.

`Cc1nc2ncc(-c3ccc4c(c3)CN(c3nc(CN(C)C(C)C)nc5c3CC(C)(C)CC5)CCO4)cc2[nH]1` registered a half-inhibitory concentration (IC50) not above 10 nM. Compound `COC(=O)Nc1nc2ccc(-c3ccc4c(c3)CN(c3nc(C)nc5ccccc35)CCO4)cc2[nH]1` showed a half-inhibitory concentration (IC50) of 10 to 50 nM. Consider `CC(=O)OCc1nc2c(c(N3CCOc4ccc(-c5cnc6nc(C)[nH]c6c5)cc4C3)n1)CC(C)(C)CC2`, for which the IC50 was in the range of 10 to 50 nM. In the case of `Cc1nc2cc(-c3ccc4c(c3)CN(c3nc(CCN5CCCC5)nc5c3CC(C)(C)CC5)CCO4)cnc2[nH]1` it was 10 to 50 nM; in that of `CCC1CCc2nc(C)nc(N3CCOc4ccc(-c5cnc6nc(C)[nH]c6c5)cc4C3)c2C1` (configuration not stated), 10 to 50 nM; in that of `CNC(=O)c1ccc(-c2ccc3c(c2)CN(c2nc(CN(C)C)nc4c2CC(C)(C)CC4)CCO3)cc1`, 50 to 250 nM. On to `Cc1nc2ncc(-c3ccc4c(c3)CN(c3ncnc(N5CCOCC5)c3C)CCO4)cc2[nH]1`, for which the half-inhibitory concentration (IC50) was 50 to 250 nM. Then `COc1ccc(-c2ccc3c(c2)CN(c2nc(CN(C)C)nc4c2CC(C)(C)CC4)CCO3)cc1S(C)(=O)=O`, with 10 to 50 nM; and `CC1(C)CCc2ncnc(N3CCOc4ccc(-c5cnc6nc[nH]c6c5)cc4C3)c2C1`, with 10 to 50 nM. Compound `CC1(C)CCc2ncnc(N3CCOc4ccc(-c5cnc(N)c(S(=O)(=O)N6CC(N)C6)c5)cc4C3)c2C1` registered a half-inhibitory concentration (IC50) of 10 to 50 nM. As for `CC(C)(O)CNS(=O)(=O)c1cc(-c2ccc3c(c2)CN(c2ncnc4c2CC(C)(C)CC4)CCO3)cnc1N`, the IC50 lay in the range of 10 to 50 nM. In turn, `Cc1nc2ncc(-c3ccc4c(c3)CN(c3ncnc5c3CC(C)(C)CC5)CCO4)cc2[nH]1` registered an IC50 of 10 to 50 nM. Then `CC[C@H]1CCc2c(nc(CN(C)C)nc2N2CCOc3ccc(-c4cnc5nc(C)[nH]c5c4)cc3C2)C1`, with not above 10 nM; and `COCCc1c(C)nc(CN(C)C)nc1N1CCOc2ccc(-c3ccc4nc(C)[nH]c4c3)cc2C1`, with not above 10 nM. In turn, `Cc1nc2c(c(N3CCOc4ccc(-c5cnc6nc(C)[nH]c6c5)cc4C3)n1)CC(C)(C)CC2` registered a half-inhibitory concentration (IC50) of 10 to 50 nM. `CC(=O)Nc1nc2cc(-c3ccc4c(c3)CN(c3nc(CN(C)C)nc5c3CC(C)(C)CC5)CCO4)cnc2s1` came in with a half-maximal inhibitory concentration (IC50) of 10 to 50 nM. In turn, `CC[C@H]1CCc2c(ncnc2N2CCOc3ccc(-c4cnc5nc([C@@H](C)N)[nH]c5c4)cc3C2)C1` had a concentration for half-maximal inhibition (IC50) of 50 to 250 nM. In the case of `CC1(C)CCc2ncnc(N3CCOc4ccc(-c5cnc(N)c(S(=O)(=O)N6C[C@H]7C[C@@H]6CN7)c5)cc4C3)c2C1` it was 50 to 250 nM. Compound `Cc1nc2ccc(-c3ccc4c(c3)CN(c3nc(CN5CC[C@H](F)C5)nc5c3CC(C)(C)CC5)CCO4)cc2[nH]1` had a 50% inhibitory concentration (IC50) of 10 to 50 nM.

Compound `CC1(C)CCc2ncnc(N3CCOc4ccc(-c5cnc(N)c(S(=O)(=O)NC(C)(C)CN)c5)cc4C3)c2C1` returned an IC50 of 50 to 250 nM.

In turn, `COCCNS(=O)(=O)c1cc(-c2ccc3c(c2)CN(c2ncnc4c2CC(C)(C)CC4)CCO3)cnc1N` returned a half-inhibitory concentration (IC50) of 10 to 50 nM. `CCNS(=O)(=O)c1cc(-c2ccc3c(c2)CN(c2ncnc4c2CC(C)(C)CC4)CCO3)cnc1N`: the 50% inhibitory concentration (IC50) was 10 to 50 nM. On to `Cc1ncnc(N2CCOc3ccc(-c4ccc5[nH]c(NCCF)nc5c4)cc3C2)c1Cc1ccc(F)cc1`, for which the IC50 was 10 to 50 nM. Take `CCNc1nc2ccc(-c3ccc4c(c3)CN(c3ncnc5cc(F)ccc35)CCO4)cc2[nH]1`: the IC50 is not above 10 nM.

In turn, `COc1ccc2c(N3CCOc4ccc(-c5cnc6[nH]ccc6c5)cc4C3)nc(C)nc2c1` showed an IC50 of 50 to 250 nM. `Cc1nc2ccc(-c3ccc4c(c3)CN(c3nc(CNC5CC5)nc(C)c3Cc3ccc(F)cc3)CCO4)cc2[nH]1` gave an IC50 of 10 to 50 nM.

Regarding `Cc1nc2cc(-c3ccc4c(c3)CN(c3nc(CN(C)C)nc(C)c3C(C)C)CCO4)ccc2[nH]1`, the IC50 was not above 10 nM.

Consider `Cc1nc2ccc(-c3ccc4c(c3)CN(c3ncnc(C)c3C(C)c3cccc(F)c3)CCO4)cc2[nH]1` (configuration not stated), for which the IC50 is not above 10 nM. Compound `CC1(C)CCc2ncnc(N3CCOc4ccc(-c5cnc(N)c(S(=O)(=O)NCCCO)c5)cc4C3)c2C1` returned a half-inhibitory concentration (IC50) not above 10 nM. The compound `Cc1nc2ccc(-c3ccc4c(c3)CN(c3ccncn3)CCO4)cc2[nH]1` returned an IC50 of 250 to 1000 nM. As for `CC1(C)CCc2ncnc(N3CCOc4ccc(-c5cnc(N)c(CS(C)(=O)=O)c5)cc4C3)c2C1`, the IC50 was 50 to 250 nM. `CC1=CC(C)(C)Cc2c1ncnc2N1CCOc2ccc(-c3cnc(N)c(S(=O)(=O)N4CC[C@@H](N)C4)c3)cc2C1` gave an IC50 of 50 to 250 nM.
